In patent US12441703B2, “Carboxamides as modulators of sodium channels” (VERTEX PHARMACEUTICALS INCORPORATED, priority 2019, dated 2025):

Each molecule was assayed against human NaV 1.8 (Homo sapiens, UniProt Q9Y5Y9) (assay: E-VIPR assay for detecting and measuring NaV inhibition properties). Settings: E-VIPR assay conducted in the absence of human serum (compounds marked *); HEK cells expressing truncated human NaV 1.8; read-out: IC50.
Chain of human NaV 1.8 (Q9Y5Y9 whole entry, looked up, the tested form may be a part): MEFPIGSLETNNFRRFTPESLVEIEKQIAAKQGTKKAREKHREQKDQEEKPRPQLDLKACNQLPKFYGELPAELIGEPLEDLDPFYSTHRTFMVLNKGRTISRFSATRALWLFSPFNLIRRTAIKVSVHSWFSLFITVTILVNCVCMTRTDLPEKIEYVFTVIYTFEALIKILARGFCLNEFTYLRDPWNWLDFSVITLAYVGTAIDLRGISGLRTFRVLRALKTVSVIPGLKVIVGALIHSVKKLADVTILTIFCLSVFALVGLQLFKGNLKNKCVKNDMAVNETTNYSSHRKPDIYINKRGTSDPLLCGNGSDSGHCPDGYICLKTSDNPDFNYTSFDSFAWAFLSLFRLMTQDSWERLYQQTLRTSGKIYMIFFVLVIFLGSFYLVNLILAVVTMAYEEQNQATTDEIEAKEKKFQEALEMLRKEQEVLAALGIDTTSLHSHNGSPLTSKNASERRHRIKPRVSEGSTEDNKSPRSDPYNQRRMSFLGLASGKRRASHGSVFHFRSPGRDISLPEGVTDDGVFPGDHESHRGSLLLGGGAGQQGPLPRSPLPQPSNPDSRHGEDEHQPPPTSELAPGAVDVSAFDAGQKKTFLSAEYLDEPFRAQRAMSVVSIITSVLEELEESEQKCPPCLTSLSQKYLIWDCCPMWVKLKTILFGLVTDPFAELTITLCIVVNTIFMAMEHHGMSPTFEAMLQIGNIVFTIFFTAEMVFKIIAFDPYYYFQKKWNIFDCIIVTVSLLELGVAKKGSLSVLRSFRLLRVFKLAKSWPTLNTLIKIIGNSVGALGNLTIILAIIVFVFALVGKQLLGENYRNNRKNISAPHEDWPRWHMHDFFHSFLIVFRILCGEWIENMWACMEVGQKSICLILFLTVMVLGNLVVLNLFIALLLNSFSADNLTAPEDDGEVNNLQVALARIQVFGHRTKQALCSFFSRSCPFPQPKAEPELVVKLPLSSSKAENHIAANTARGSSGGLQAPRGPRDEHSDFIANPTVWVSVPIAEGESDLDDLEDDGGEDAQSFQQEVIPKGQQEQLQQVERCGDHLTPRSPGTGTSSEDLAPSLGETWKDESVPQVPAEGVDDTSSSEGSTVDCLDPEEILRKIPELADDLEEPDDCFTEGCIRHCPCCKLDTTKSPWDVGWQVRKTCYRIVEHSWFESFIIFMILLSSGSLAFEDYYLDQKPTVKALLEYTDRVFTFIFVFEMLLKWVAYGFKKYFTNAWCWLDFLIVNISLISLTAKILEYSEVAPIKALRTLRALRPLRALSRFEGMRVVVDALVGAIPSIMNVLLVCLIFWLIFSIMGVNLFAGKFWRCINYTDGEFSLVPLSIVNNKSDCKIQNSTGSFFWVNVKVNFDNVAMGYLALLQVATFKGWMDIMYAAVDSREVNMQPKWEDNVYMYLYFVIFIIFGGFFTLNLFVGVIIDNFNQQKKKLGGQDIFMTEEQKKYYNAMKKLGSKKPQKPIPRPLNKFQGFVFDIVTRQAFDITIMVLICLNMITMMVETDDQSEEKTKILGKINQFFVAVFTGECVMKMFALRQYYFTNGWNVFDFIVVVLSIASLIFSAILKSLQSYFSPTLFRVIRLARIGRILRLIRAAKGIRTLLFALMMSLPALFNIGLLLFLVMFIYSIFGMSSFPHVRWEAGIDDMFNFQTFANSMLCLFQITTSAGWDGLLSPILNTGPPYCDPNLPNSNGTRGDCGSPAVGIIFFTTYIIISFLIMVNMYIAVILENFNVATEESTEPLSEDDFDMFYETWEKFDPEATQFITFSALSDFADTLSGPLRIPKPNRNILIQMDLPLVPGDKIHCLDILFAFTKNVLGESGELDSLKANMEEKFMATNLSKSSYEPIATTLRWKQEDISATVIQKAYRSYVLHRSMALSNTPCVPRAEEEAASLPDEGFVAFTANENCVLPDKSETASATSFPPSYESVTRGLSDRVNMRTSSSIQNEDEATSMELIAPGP
Type: cell-based
How it was run: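 HEK cells with truncated human NaV1.8 plus KIR2.1 BacMam, hexyl dye loaded 20 min, compound 30 min at room temperature, 11-point 3-fold series […], 0.625% DMSO, with or without human serum. E-VIPR biphasic stimulation at 10 Hz for 10 s; membrane-potential response read as normalized coumarin/oxonol ratio.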
Molecule `COc1c(C(F)(F)F)cc(Oc2ccc(F)cc2Cl)c(C(=O)Nc2cc(C(N)=O)ncc2C)c1F` [Compound 382, 4-(6-(2-Chloro-4-Fluorophenoxy)-2-Fluoro-3-Methoxy-4-(Trifluoromethyl)Benzamido)-5-Methylpicolinamide] has an IC50 of 5 nM.

Same assay, conditions: E-VIPR assay conducted in the presence of human serum; HEK cells expressing truncated human NaV 1.8; read-out: IC50
`COc1c(Oc2cc(C(F)(F)F)c(OC)c(F)c2C(=O)Nc2ccc(C(N)=O)nc2)ccc(F)c1F` [Compound 377, 5-[[6-(3,4-difluoro-2-methoxy-phenoxy)-2-fluoro-3-methoxy-4-(trifluoromethyl)benzoyl]amino]pyridine-2-carboxamide] was tested, and the IC50 was 21 nM. In the case of `COc1cc(Oc2ccc(F)c(F)c2OC)c(C(=O)Nc2cnc(C(N)=O)nc2)c(F)c1C(F)(F)F` [Compound 380, 5-[[6-(3,4-difluoro-2-methoxy-phenoxy)-2-fluoro-4-methoxy-3-(trifluoromethyl)benzoyl]amino]pyrimidine-2-carboxamide], the IC50 is reported as 26 nM. `COc1cc(Oc2ccc(F)c(F)c2OC)c(C(=O)Nc2ccc(C(N)=O)nc2)c(F)c1C(F)(F)F` [Compound 381, 5-[[6-(3,4-difluoro-2-methoxy-phenoxy)-2-fluoro-4-methoxy-3-(trifluoromethyl)benzoyl]amino]pyridine-2-carboxamide] gave an IC50 of 16 nM. Molecule `COc1cc(OC(F)(F)F)ccc1Oc1ccc(C(F)(F)F)c(O)c1C(=O)Nc1ccnc(C(N)=O)c1` [Compound 383, 4-[[2-hydroxy-6-[2-methoxy-4-(trifluoromethoxy)phenoxy]-3-(trifluoromethyl)benzoyl]amino]pyridine-2-carboxamide] has an IC50 of over 3000 nM. With `[2H]C([2H])([2H])Oc1cc(OC(F)(F)F)ccc1Oc1cc(C2=CCCCC2)cc(F)c1C(=O)Nc1ccnc(C(N)=O)c1` [Compound 1001, 4-[[4-(cyclohexen-1-yl)-2-fluoro-6-[2-(trideuteriomethoxy)-4-(trifluoromethoxy)phenoxy]benzoyl]amino]pyridine-2-carboxamide] the IC50 was 19 nM. `[2H]C([2H])([2H])Oc1cc(OC(F)(F)F)ccc1Oc1cc(C2=COCCC2)cc(F)c1C(=O)Nc1ccnc(C(N)=O)c1` [Compound 1002, 4-[[4-(3,4-dihydro-2H-pyran-5-yl)-2-fluoro-6-[2-(trideuteriomethoxy)-4-(trifluoromethoxy)phenoxy]benzoyl]amino]pyridine-2-carboxamide] showed an IC50 of 30 nM. `[2H]C([2H])([2H])Oc1cc(OC(F)(F)F)ccc1Oc1cc(C2=CCC(F)(F)CC2)cc(F)c1C(=O)Nc1ccnc(C(N)=O)c1` [Compound 1003, 4-[[4-(4,4-difluorocyclohexen-1-yl)-2-fluoro-6-[2-(trideuteriomethoxy)-4-(trifluoromethoxy)phenoxy]benzoyl]amino]pyridine-2-carboxamide] showed an IC50 of 26 nM. With `[2H]C([2H])([2H])Oc1cc(OC(F)(F)F)ccc1Oc1cc(C2=CCOC2)cc(F)c1C(=O)Nc1ccnc(C(N)=O)c1` [Compound 1004, 4-[[4-(2,5-dihydrofuran-3-yl)-2-fluoro-6-[2-(trideuteriomethoxy)-4-(trifluoromethoxy)phenoxy]benzoyl]amino]pyridine-2-carboxamide] the IC50 was 29 nM. `[2H]C([2H])([2H])Oc1cc(OC(F)(F)F)ccc1Oc1cc(C2=CCOCC2)cc(F)c1C(=O)Nc1ccnc(C(N)=O)c1` [Compound 1005, 4-[[4-(3,6-dihydro-2H-pyran-4-yl)-2-fluoro-6-[2-(trideuteriomethoxy)-4-(trifluoromethoxy)phenoxy]benzoyl]amino]pyridine-2-carboxamide] showed an IC50 of 120 nM. Work on `[2H]C([2H])([2H])Oc1cc(OC(F)(F)F)ccc1Oc1cc(-c2ccccc2C(N)=O)cc(F)c1C(=O)Nc1ccnc(C(N)=O)c1` [Compound 1006, 4-[[4-(2-carbamoylphenyl)-2-fluoro-6-[2-(trideuteriomethoxy)-4-(trifluoromethoxy)phenoxy]benzoyl]amino]pyridine-2-carboxamide] yielded an IC50 of over 3000 nM. Work on `[2H]C([2H])([2H])Oc1cc(OC(F)(F)F)ccc1Oc1cc(-c2ccc(OC)cc2)cc(F)c1C(=O)Nc1ccnc(C(N)=O)c1` [Compound 1007, 4-[[2-fluoro-4-(4-methoxyphenyl)-6-[2-(trideuteriomethoxy)-4-(trifluoromethoxy)phenoxy]benzoyl]amino]pyridine-2-carboxamide] yielded an IC50 of 170 nM. Work on `[2H]C([2H])([2H])Oc1cc(OC(F)(F)F)ccc1Oc1cc(C2=COCC2)cc(F)c1C(=O)Nc1ccnc(C(N)=O)c1` [Compound 1008, 4-[[4-(2,3-dihydrofuran-4-yl)-2-fluoro-6-[2-(trideuteriomethoxy)-4-(trifluoromethoxy)phenoxy]benzoyl]amino]pyridine-2-carboxamide] yielded an IC50 of 21 nM. Work on `[2H]C([2H])([2H])Oc1cc(OC(F)(F)F)ccc1Oc1cc(C2=CCC(OC)CC2)cc(F)c1C(=O)Nc1ccnc(C(N)=O)c1` (stereo not drawn) [Compound 1009, 4-[[2-fluoro-4-(4-methoxycyclohexen-1-yl)-6-[2-(trideuteriomethoxy)-4-(trifluoromethoxy)phenoxy]benzoyl]amino]pyridine-2-carboxamide] yielded an IC50 of 170 nM. In the case of `[2H]C([2H])([2H])Oc1cc(OC(F)(F)F)ccc1Oc1cc(C2=CCCC2)cc(F)c1C(=O)Nc1ccnc(C(N)=O)c1` [Compound 1010, 4-[[4-(cyclopenten-1-yl)-2-fluoro-6-[2-(trideuteriomethoxy)-4-(trifluoromethoxy)phenoxy]benzoyl]amino]pyridine-2-carboxamide], the IC50 is reported as 13 nM. `[2H]C([2H])([2H])Oc1cc(OC(F)(F)F)ccc1Oc1cc(-c2cccc(C#N)c2)cc(F)c1C(=O)Nc1ccnc(C(N)=O)c1` [Compound 1011, 4-[[4-(3-cyanophenyl)-2-fluoro-6-[2-(trideuteriomethoxy)-4-(trifluoromethoxy)phenoxy]benzoyl]amino]pyridine-2-carboxamide] gave an IC50 of 470 nM. In the case of `[2H]C([2H])([2H])Oc1cc(OC(F)(F)F)ccc1Oc1cc(-c2ccc(C#N)cc2)cc(F)c1C(=O)Nc1ccnc(C(N)=O)c1` [Compound 1012, 4-[[4-(4-cyanophenyl)-2-fluoro-6-[2-(trideuteriomethoxy)-4-(trifluoromethoxy)phenoxy]benzoyl]amino]pyridine-2-carboxamide], the IC50 is reported as 190 nM. Work on `COc1cc(OC(F)(F)F)ccc1Oc1cc(C2=CCC(C(F)(F)F)CC2)cc(F)c1C(=O)Nc1ccnc(C(N)=O)c1` (stereo not drawn) [Compound 1013, 4-[[2-fluoro-6-[2-methoxy-4-(trifluoromethoxy)phenoxy]-4-[4-(trifluoromethyl)cyclohexen-1-yl]benzoyl]amino]pyridine-2-carboxamide] yielded an IC50 of 13 nM. `COc1cc(OC(F)(F)F)ccc1Oc1cc(C2=CC3CCC2C3)cc(F)c1C(=O)Nc1ccnc(C(N)=O)c1` (stereo not drawn) [Compound 1014, 4-[[4-(2-bicyclo[2.2.1]hept-2-enyl)-2-fluoro-6-[2-methoxy-4-(trifluoromethoxy)phenoxy]benzoyl]amino]pyridine-2-carboxamide] gave an IC50 of 33 nM. `COc1cc(OC(F)(F)F)ccc1Oc1cc(C2=CCC3(CC2)OCCO3)cc(F)c1C(=O)Nc1ccnc(C(N)=O)c1` [Compound 1015, 4-[[4-(1,4-dioxaspiro[4.5]dec-7-en-8-yl)-2-fluoro-6-[2-methoxy-4-(trifluoromethoxy)phenoxy]benzoyl]amino]pyridine-2-carboxamide] was tested, and the IC50 was 360 nM. `COc1cc(OC(F)(F)F)ccc1Oc1cc(C2=CCC(C(C)(C)C)CC2)cc(F)c1C(=O)Nc1ccnc(C(N)=O)c1` (stereo not drawn) [Compound 1016, 4-[[4-(4-tert-butylcyclohexen-1-yl)-2-fluoro-6-[2-methoxy-4-(trifluoromethoxy)phenoxy]benzoyl]amino]pyridine-2-carboxamide] gave an IC50 of 60 nM. In the case of `[2H]C([2H])([2H])Oc1cc(OC(F)(F)F)ccc1Oc1cc(C2CCOC2)cc(F)c1C(=O)Nc1ccnc(C(N)=O)c1` (stereo not drawn) [Compound 1018, 4-[[2-fluoro-4-tetrahydrofuran-3-yl-6-[2-(trideuteriomethoxy)-4-(trifluoromethoxy)phenoxy]benzoyl]amino]pyridine-2-carboxamide], the IC50 is reported as 130 nM. With `[2H]C([2H])([2H])Oc1cc(OC(F)(F)F)ccc1Oc1cc(C2CCOCC2)cc(F)c1C(=O)Nc1ccnc(C(N)=O)c1` [Compound 1019, 4-[[2-fluoro-4-tetrahydropyran-4-yl-6-[2-(trideuteriomethoxy)-4-(trifluoromethoxy)phenoxy]benzoyl]amino]pyridine-2-carboxamide] the IC50 was 79 nM. `COc1cc(OC(F)(F)F)ccc1Oc1cc(C2CC3CCC2C3)cc(F)c1C(=O)Nc1ccnc(C(N)=O)c1` (stereo not drawn) [Compound 1020, 4-[[2-fluoro-6-[2-methoxy-4-(trifluoromethoxy)phenoxy]-4-norboman-2-yl-benzoyl]amino]pyridine-2-carboxamide] was tested, and the IC50 was 9 nM. With `[2H]C([2H])([2H])Oc1cc(OC(F)(F)F)ccc1Oc1cc(C#CCC(C)C)cc(F)c1C(=O)Nc1ccnc(C(N)=O)c1` [Compound 1021, 4-[[2-fluoro-4-(4-methylpent-1-ynyl)-6-[2-(trideuteriomethoxy)-4-(trifluoromethoxy)phenoxy]benzoyl]amino]pyridine-2-carboxamide] the IC50 was 41 nM. `[2H]C([2H])([2H])Oc1cc(OC(F)(F)F)ccc1Oc1cc(C#CC(C)(C)C)cc(F)c1C(=O)Nc1ccnc(C(N)=O)c1` [Compound 1022] showed an IC50 of 190 nM. `[2H]C([2H])([2H])Oc1cc(OC(F)(F)F)ccc1Oc1cc(C#CC2CC2)cc(F)c1C(=O)Nc1ccnc(C(N)=O)c1` [Compound 1023] gave an IC50 of 100 nM. For `[2H]C([2H])([2H])Oc1cc(OC(F)(F)F)ccc1Oc1cc(C#CC2CCC2)cc(F)c1C(=O)Nc1ccnc(C(N)=O)c1` [Compound 1024], the IC50 was 150 nM. With `COc1cc(OC(F)(F)F)ccc1Oc1ccc(C(F)(F)F)c(SC)c1C(=O)Nc1ccnc(C(N)=O)c1` [Compound 1025, 4-[[6-[2-methoxy-4-(trifluoromethoxy)phenoxy]-2-methylsulfanyl-3-(trifluoromethyl)benzoyl]amino]pyridine-2-carboxamide] the IC50 was 2 nM. For `COc1cc(OC(F)(F)F)ccc1Oc1ccc(C(F)(F)F)c(OCCN(C)C)c1C(=O)Nc1ccnc(C(N)=O)c1` [Compound 1027], the IC50 was over 3000 nM.
